Results taken from patent US8895474B2, “Herbicidally active cyclopentanediones and derivatives thereof, and their use in controlling weeds” (Syngenta Limited, priority 2009, dated 2014).

Tests used:
Type in all cases: in vivo
Settings in all cases: 312 h, rate 250 g/ha, evaluated after 13 days, 100=total damage to plant, 0=no damage to plant
[1] = test system: Alopecurus myosuroides (ALOMY); experiment: Pre-emergence herbicidal activity, glasshouse pot test
Method: (§1) Seeds of a variety of test species were sown in standard soil in pots. After cultivation for one day (pre-emergence) or after 8 days cultivation (post-emergence) under controlled conditions in a glasshouse (at 24/16° C., day/night; 14 hours light; 65% humidity), the plants were sprayed with an aqueous spray solution derived from the formulation of the technical active ingredient in acetone/water (50:50) solution containing 0.5% Tween 20 (polyoxyethelyene sorbitan monolaurate, CAS RN 9005-64-5). The test plants were then grown in a glasshouse under controlled conditions in a glasshouse (at 24/16° C., day/night; 14 hours light; 65% humidity) and watered twice daily. After 13 days for pre and post-emergence, the test was evaluated (100=total damage to plant; 0=no damage to plant). Test Plants: Lolium perenne (LOLPE), Alopecurus myosuroides (ALOMY), Echinochloa crus-galli (ECHCG), and Avena fatua (AVEFA). Pre-Emergence Activity

Lolium perenne (LOLPE) [2] = experiment: as above
Method: as §1

[3] = test system: Echinochloa crus-galli (ECHCG); experiment: as above
Method: as §1

Avena fatua (AVEFA) [4] = experiment: as above
Method: as §1

[5] = test system: Alopecurus myosuroides (ALOMY); experiment: Post-emergence herbicidal activity, glasshouse pot test
Method: as §1, with “Post-Emergence” for “Pre-Emergence”

Lolium perenne (LOLPE) [6] = experiment: as above
Method: as §1, with “Post-Emergence” for “Pre-Emergence”

[7] = test system: Echinochloa crus-galli (ECHCG); experiment: as above
Method: as §1, with “Post-Emergence” for “Pre-Emergence”

Avena fatua (AVEFA) [8] = experiment: as above
Method: as §1, with “Post-Emergence” for “Pre-Emergence”

Row | SMILES | pest or weed control at 250 g/ha [1] [%] | pest or weed control at 250 g/ha (Lolium perenne (LOLPE) [2]) [%] | pest or weed control at 250 g/ha [3] [%] | pest or weed control at 250 g/ha (Avena fatua (AVEFA) [4]) [%] | pest or weed control at 250 g/ha [5] [%] | pest or weed control at 250 g/ha (Lolium perenne (LOLPE) [6]) [%] | pest or weed control at 250 g/ha [7] [%] | pest or weed control at 250 g/ha (Avena fatua (AVEFA) [8]) [%]
1 | CCc1ccc(Oc2ccc(Cl)cc2)cc1C1=C(O)[C@H]2[C@@H](C1=O)[C@@H]1CC[C@H]2O1 [Compound A-1, meso-(1R,2S,6R,7S)-4-[5-(4-chlorophenoxy)-2-ethylphenyl]-10-oxatricyclo[5.2.1.0^2,6]decane-3,5-dione] | 70 | 70 | 70 | 70 | 100 | 80 | 100 | 80
2 | CCc1ccc(Oc2ccc(Br)cc2F)cc1C1=C(O)[C@H]2[C@@H](C1=O)[C@@H]1CC[C@H]2O1 [Compound A-2] | 60 | 60 | 60 | 30 | 100 | 100 | 100 | 100
3 | CCc1ccc(Oc2ccc(Br)cc2C)cc1C1=C(O)[C@H]2[C@@H](C1=O)[C@@H]1CC[C@H]2O1 [Compound A-3] | 60 | 70 | 90 | 30 | 90 | 70 | 100 | 90
4 | CCc1ccc(Oc2ccc(Br)cc2)cc1C1=C(O)[C@H]2[C@@H](C1=O)[C@@H]1CC[C@H]2O1 [Compound A-4] | 80 | 90 | 100 | 90 | 100 | 90 | 100 | 100
5 | CCc1ccc(Oc2ccccc2F)cc1C1=C(O)[C@H]2[C@@H](C1=O)[C@@H]1CC[C@H]2O1 [Compound A-5] | 30 | 40 | 80 | 0 | 30 | 30 | 80 | 10
6 | CCc1ccc(Oc2ccc(Cl)cc2F)cc1C1=C(O)[C@H]2[C@@H](C1=O)[C@@H]1CC[C@H]2O1 [Compound A-6] | 100 | 100 | 100 | 90 | 80 | 90 | 100 | 90
7 | CCc1ccc(Oc2cccc(Cl)c2)cc1C1=C(O)[C@H]2[C@@H](C1=O)[C@@H]1CC[C@H]2O1 [Compound A-7] | 60 | 60 | 70 | 50 | 60 | 60 | 100 | 80
8 | CCc1ccc(Oc2ccccc2Cl)cc1C1=C(O)[C@H]2[C@@H](C1=O)[C@@H]1CC[C@H]2O1 [Compound A-8] | 0 | 40 | 40 | 0 | 20 | 20 | 70 | 20
9 | CCc1ccc(Oc2ccc(Br)cc2Cl)cc1C1=C(O)[C@H]2[C@@H](C1=O)[C@@H]1CC[C@H]2O1 [Compound A-9] | 80 | 100 | 70 | 90 | 90 | 70 | 90 | 100
10 | CCc1ccc(Oc2cnc3cc(Cl)ccc3n2)cc1C1=C(O)[C@H]2[C@H]3CC[C@H](C3)[C@H]2C1=O [Compound A-10, meso-(3aS,4S,7R,7aR)-2-[5-(6-chloroquinoxalin-2-yloxy)-2-ethylphenyl]hexahydro-4,7-methanoindene-1,3-dione] | 40 | 30 | 60 | 20 | 90 | 90 | 90 | 100
11 | CCc1ccc(Oc2ncc(Cl)cc2F)cc1C1=C(O)[C@H]2[C@H]3CC[C@H](C3)[C@H]2C1=O [Compound A-11] | 30 | 80 | 100 | 50 | 80 | 70 | 100 | 90
12 | CCc1ccc(Oc2nc3ccccc3s2)cc1C1=C(O)[C@H]2[C@H]3CC[C@H](C3)[C@H]2C1=O [Compound A-12] | 60 | 70 | 70 | 30 | 100 | 70 | 100 | 50
13 | CCc1ccc(Oc2cnc3cc(Cl)ccc3n2)cc1C1=C(O)C2C(C1=O)[C@H]1CC[C@@H]2CC1 (some centres unmarked) [Compound A-13, 2-[5-(6-chloroquinoxalin-2-yloxy)-2-ethylphenyl]hexahydro-4,7-ethanoindene-1,3-dione] | 50 | 60 | 80 | 20 | 90 | 90 | 100 | 100
14 | CCc1ccc(Oc2ncc(Cl)cc2F)cc1C1=C(O)C2C(C1=O)[C@H]1CC[C@@H]2CC1 (some centres unmarked) [Compound A-14] | 60 | 90 | 100 | 60 | 100 | 90 | 100 | 100
15 | CCc1ccc(Oc2ccc(C#N)cc2)cc1C1=C(O)C2C(C1=O)[C@H]1CC[C@@H]2CC1 (some centres unmarked) [Compound A-15] | 30 | 10 | 100 | 0 | 30 | 30 | 80 | 30
16 | CCc1ccc(Oc2nc3ccccc3s2)cc1C1=C(O)C2C(C1=O)[C@H]1CC[C@@H]2CC1 (some centres unmarked) [Compound A-16] | 40 | 70 | 90 | 30 | 70 | 70 | 100 | 90
17 | CCc1ccc(Oc2ccc(Cl)c(Cl)c2)cc1C1=C(O)CCC1=O [Compound A-17, 2-[5-(3,4-dichlorophenoxy)-2-ethylphenyl]cyclopentane-1,3-dione] | 10 | 10 | 30 | 20 | 10 | 30 | 70 | 10
18 | CCc1ccc(Oc2cnc3cc(Cl)ccc3n2)cc1C1=C(O)CCC1=O [Compound A-18] | 50 | 70 | 80 | 50 | 90 | 70 | 100 | 90
19 | CCc1ccc(Oc2ncc(Cl)cc2F)cc1C1=C(O)CCC1=O [Compound A-19] | 90 | 90 | 90 | 80 | 80 | 50 | 100 | 60
